The record followed here is US20200131669A1, “CYCLIC PEPTIDE COMPOUND HAVING HIGH MEMBRANE PERMEABILITY, AND LIBRARY CONTAINING SAME” (Chugai Seiyaku Kabushiki Kaisha, priority 2017, published 2020).

For orientation: Papp A→B means the apparent permeability from the apical to the basolateral side of a cell layer. A higher Papp A→B goes with ready permeation.

Positions of bridges follow the written chain, without caps; N, C: chain ends. Non-standard residues stand in square brackets, D forms with d. Residues, ends and D or L forms follow the SMILES beside them. ξ: configuration not given here. *: point of attachment. NMeAbu(3,3-F2-piperidino) = CN[C@@H](CCN1CCCC(F)(F)C1)C(=O)O; NMePhe(3-Cl) = CN[C@@H](Cc1cccc(Cl)c1)C(=O)O; hPhe(3-Cl) = N[C@@H](CCc1cccc(Cl)c1)C(=O)O; hPhe(4-Cl) = N[C@@H](CCc1ccc(Cl)cc1)C(=O)O; hhPhe = N[C@@H](CCCc1ccccc1)C(=O)O; NMeF = CN[C@@H](Cc1ccccc1)C(=O)O; NMeI = CC[C@H](C)[C@H](NC)C(=O)O; hPhe = N[C@@H](CCc1ccccc1)C(=O)O; CH2CH(OH)CF3 = OC(C*)C(F)(F)F; CH2CONHtBu = CC(C)(C)NC(=O)C*; NMeL = CN[C@@H](CC(C)C)C(=O)O; NMeV = CN[C@H](C(=O)O)C(C)C; NMeAbu = CC[C@H](NC)C(=O)O; NPentylGly = CCCCCNCC(=O)O; hSer = N[C@@H](CCO)C(=O)O; NMeA = CN[C@@H](C)C(=O)O; Piperidide = C1CCN(*)CC1; CH2CMe2OH = CC(C)(O)C*; NPrGly = CCCNCC(=O)O; X11 = FC(F)C(F)(F)C*; X2 = Fc1cncc(C*)c1; Bn = c1ccc(C*)cc1; ξS = NC(CO)C(=O)O; Sar = CNCC(=O)O; tBu = CC(C)(C)*

Tested on in the first series: not listed separately
In words: Caco-2 membrane permeability, improved method as used in the following Examples (96-well, 20 to 24 h preincubation). The class given is in vitro ADME. The settings on record: human, Caco-2, Caco-2. The method in brief:
(§1)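 Caco-2 monolayers were grown three weeks and preincubated 20–24 h at 37 °C with compound in DMEM+FaSSIF (1% DMSO) apically. The assay then used compound in FaSSIF/HBSS (1% DMSO, pH 6.0) apically and HBSS with 4% BSA (pH 7.4) basally. Basal samples were taken at 180 min for LC/MS, and Papp (cm/sec) was calculated.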
On the technique in general: Passage across Caco-2 layers is used to estimate intestinal permeability.
The compound `CC[C@H](C)[C@@H]1NC(=O)[C@H](CC(C)C)N(C)C(=O)[C@H](COCC(O)C(F)(F)F)NC(=O)[C@H](Cc2ccccc2)N(C)C(=O)CN(C)C(=O)C[C@@H](C(=O)N2CCCCC2)NC(=O)[C@H](CC(C)C)N(C)C(=O)[C@H](COC(C)(C)C)NC(=O)[C@H](CC(C)C)N(C)C(=O)[C@H](Cc2ccccc2)N(C)C(=O)CN(C)C1=O` (stereo partly drawn) [pd504] ([Sar][NMeF]S(CH2CH(OH)CF3)[NMeL]I[Sar][NMeF][NMeL]S(tBu)[NMeL]D-Piperidide; lactam N-11) gave a Papp A→B at 180 min of 41 nm/s.

In a further series the test system is Caco-2 cells. Described as above. The class given is in vitro ADME. The settings on record: Papp, Caco-2 membrane permeability, improved method. The method in brief:
as §1
Take `CCOCC[C@@H]1NC(=O)[C@H](CC(C)C)N(C)C(=O)CN(C)C(=O)[C@H]([C@@H](C)O)NC(=O)[C@H](CC(C)C)N(C)C(=O)[C@H](CC(C)C)NC(=O)[C@H](Cc2ccccc2)N(C)C(=O)[C@@H](CC(C)C)NC(=O)C[C@@H](C(=O)N2CCCCC2)NC(=O)[C@H](CC(C)C)N(C)C(=O)[C@H](Cc2ccccc2)N(C)C1=O` [pd444] ([dL][NMeF]L[NMeL]T[Sar][NMeL][hSer](Et)[NMeF][NMeL]D-Piperidide; lactam N-11): the Caco-2 came to 1.1e-06 cm/s.

Still in this series, the particulars now being: human, Caco-2, 180 min.
Turning to `CC[C@H](C)[C@@H]1NC(=O)[C@H](Cc2ccccc2)N(C)C(=O)CN(C)C(=O)C[C@@H](C(=O)N2CCCCC2)NC(=O)[C@H]([C@@H](C)CC)N(C)C(=O)C(COCc2ccccc2)NC(=O)[C@H](CC(C)C)N(C)C(=O)[C@H](Cc2ccccc2)N(C)C(=O)CN(C)C(=O)[C@H]([C@@H](C)O)NC(=O)[C@H](CC(C)C)N(C)C1=O` (stereo partly drawn) [pd178] ([Sar][NMeF]I[NMeL]T[Sar][NMeF][NMeL][ξS](Bn)[NMeI]D-Piperidide; lactam N-11), the “Caco-2” value worked out at 2.5e-06 cm/s.
Regarding `CC(C)C[C@H]1C(=O)N[C@@H](COC(C)(C)C)C(=O)N(C)[C@@H](Cc2ccccc2)C(=O)N(C)[C@@H](C(C)C)C(=O)N[C@H](C(=O)N2CCCCC2)CC(=O)N[C@H](C)C(=O)N(C)[C@@H](Cc2ccccc2)C(=O)NC(COc2cccc(Cl)c2)C(=O)N(C)[C@@H](C(C)C)C(=O)N[C@@H]([C@@H](C)O)C(=O)N(C)CC(=O)N1C` (some centres unmarked) [pd185], the “Caco-2” value came out at 2.2e-06 cm/s.
On the same count and under the same terms, as for `CC[C@H](C)[C@H]1C(=O)N[C@@H]([C@@H](C)O)C(=O)N(C)CC(=O)N(C)[C@@H](C)C(=O)N[C@H](C(=O)N2CCCCC2)CC(=O)N(C)[C@@H](C)C(=O)N[C@@H](C(C)C)C(=O)N(C)[C@@H](CC(C)C)C(=O)N(C)[C@@H](Cc2ccccc2)C(=O)NC(COc2cccc(Cl)c2)C(=O)N(C)[C@@H](Cc2ccccc2)C(=O)N1C` (some centres unmarked) [pd186], the figure is 1.8e-06 cm/s.
As to `CC[C@H](C)[C@H]1C(=O)N[C@@H]([C@@H](C)O)C(=O)N(C)CC(=O)N(C)[C@@H](CC(C)C)C(=O)N[C@H](C(=O)N2CCCCC2)CC(=O)N(C)[C@@H](C)C(=O)NC(COc2cccc(Cl)c2)C(=O)N(C)[C@@H](CC(C)C)C(=O)N(C)[C@@H](Cc2ccccc2)C(=O)N[C@@H](C)C(=O)N(C)[C@@H](Cc2ccccc2)C(=O)N1C` (some centres unmarked) [pd188], the “Caco-2” value amounted to 1.3e-06 cm/s.
`CC(C)C[C@H]1C(=O)N[C@H](C(=O)N2CCCCC2)CC(=O)N[C@H](C)C(=O)N(C)[C@@H](CC(C)C)C(=O)N[C@@H](COC(C)(C)C)C(=O)N(C)[C@@H](C)C(=O)N(C)[C@@H](CC(C)C)C(=O)N(C)[C@@H](C)C(=O)N[C@@H]([C@@H](C)O)C(=O)N(C)[C@@H](Cc2ccccc2)C(=O)N[C@@H](CCc2ccccc2)C(=O)N1C` [pd309] ([dA][NMeL]S(tBu)[NMeA][NMeL][NMeA]T[NMeF][hPhe][NMeL]D-Piperidide; lactam N-11) yielded a Caco-2 of 1.1e-06 cm/s.
The same measure, in the same setting: as for `CC[C@H](C)[C@H]1C(=O)N[C@@H]([C@@H](C)O)C(=O)N(C)CC(=O)N(C)[C@@H](CC(C)C)C(=O)N[C@H](C(=O)N2CCCCC2)CC(=O)N(C)[C@@H](C(C)C)C(=O)N[C@@H](COCc2cncc(F)c2)C(=O)N(C)[C@@H](CC(C)C)C(=O)N(C)[C@@H](Cc2ccccc2)C(=O)N[C@@H](CC(C)C)C(=O)N(C)[C@@H](Cc2ccccc2)C(=O)N1C` [pd347] ([NMeV]S(X2)[NMeL][NMeF]L[NMeF][NMeI]T[Sar][NMeL]D-Piperidide; lactam N-11), the figure is 1.1e-06 cm/s; as for `CC[C@H](C)[C@H]1C(=O)N[C@@H]([C@@H](C)O)C(=O)N(C)CC(=O)N(C)[C@@H](CC(C)C)C(=O)N[C@H](C(=O)N2CCCCC2)CC(=O)N(C)[C@@H](C)C(=O)N[C@@H](CC(C)C)C(=O)N(C)[C@@H](CC(C)C)C(=O)N(C)[C@@H](Cc2ccccc2)C(=O)N[C@@H](COCC(F)(F)C(F)F)C(=O)N(C)[C@@H](Cc2ccccc2)C(=O)N1C` [pd348] ([NMeA]L[NMeL][NMeF]S(X11)[NMeF][NMeI]T[Sar][NMeL]D-Piperidide; lactam N-11), 1.1e-06 cm/s.
Same read-out and setting: as for `CC[C@H](C)[C@@H]1NC(=O)[C@H](Cc2ccccc2)N(C)C(=O)CN(C)C(=O)C[C@@H](C(=O)N2CCCCC2)NC(=O)[C@H](C(C)C)N(C)C(=O)[C@H](CCc2cccc(Cl)c2)NC(=O)[C@H](CC(C)C)N(C)C(=O)[C@H](CC(C)C)N(C)C(=O)CN(C)C(=O)[C@H]([C@@H](C)O)NC(=O)[C@H](CC(C)C)N(C)C1=O` [pd358] ([Sar][NMeF]I[NMeL]T[Sar][NMeL][NMeL][hPhe(3-Cl)][NMeV]D-Piperidide; lactam N-11), the figure is 1.1e-06 cm/s; as for `CC(C)C[C@H]1C(=O)N[C@@H](COC(C)(C)C)C(=O)N(C)[C@@H](Cc2ccccc2)C(=O)N(C)[C@@H](C(C)C)C(=O)N[C@H](C(=O)N2CCCCC2)CC(=O)N[C@H](C(C)C)C(=O)N(C)[C@@H](C)C(=O)N[C@@H](CCc2ccc(Cl)cc2)C(=O)N(C)[C@@H](CC(C)C)C(=O)N[C@@H]([C@@H](C)O)C(=O)N(C)CC(=O)N1C` [pd359] ([dV][NMeA][hPhe(4-Cl)][NMeL]T[Sar][NMeL]S(tBu)[NMeF][NMeV]D-Piperidide; lactam N-11), 1.1e-06 cm/s; as for `CC(C)C[C@H]1C(=O)N[C@H](C(=O)N2CCCCC2)CC(=O)N(C)[C@@H](C)C(=O)N[C@@H](CCc2ccc(Cl)cc2)C(=O)N(C)[C@@H](CC(C)C)C(=O)N(C)[C@@H](CC(C)C)C(=O)N[C@@H](C)C(=O)N(C)[C@@H](Cc2ccccc2)C(=O)N(C)[C@@H](C(C)C)C(=O)N[C@@H]([C@@H](C)O)C(=O)N(C)CC(=O)N1C` [pd361] ([NMeA][hPhe(4-Cl)][NMeL][NMeL]A[NMeF][NMeV]T[Sar][NMeL]D-Piperidide; lactam N-11), 1.1e-06 cm/s.
`CC(C)C[C@H]1C(=O)N[C@@H](COC(C)(C)C)C(=O)N(C)[C@@H](Cc2ccccc2)C(=O)N(C)[C@@H](C)C(=O)N[C@H](C(=O)N2CCCCC2)CC(=O)N[C@H](C(C)C)C(=O)N(C)[C@@H](Cc2ccccc2)C(=O)N[C@@H](CCCc2ccccc2)C(=O)N(C)[C@@H](CC(C)C)C(=O)N[C@@H]([C@@H](C)O)C(=O)N(C)CC(=O)N1C` [pd363] ([dV][NMeF][hhPhe][NMeL]T[Sar][NMeL]S(tBu)[NMeF][NMeA]D-Piperidide; lactam N-11) displayed a Caco-2 of 1.1e-06 cm/s.
Same read-out and setting: under `CC(C)C[C@@H]1NC(=O)[C@H](CCN2CCCC(F)(F)C2)N(C)C(=O)[C@@H](C(C)C)NC(=O)C[C@@H](C(=O)N2CCCCC2)NC(=O)[C@H](C)N(C)C(=O)[C@H](Cc2cccc(Cl)c2)N(C)C(=O)[C@H](CC(C)C)NC(=O)[C@H](CC(C)C)N(C)C(=O)CN(C)C(=O)[C@H]([C@@H](C)O)NC(=O)[C@H](Cc2ccccc2)N(C)C1=O` [pd389] ([dV][NMeAbu(3,3-F2-piperidino)]L[NMeF]T[Sar][NMeL]L[NMePhe(3-Cl)][NMeA]D-Piperidide; lactam N-11) stands 1.1e-06 cm/s.
On to `CCCCCN1CC(=O)N[C@@H](COC(C)(C)C)C(=O)N(C)[C@@H](Cc2ccccc2)C(=O)N(C)[C@@H](CC(C)C)C(=O)N[C@H](C(=O)N2CCCCC2)CC(=O)N[C@H](CC(C)C)C(=O)N(C)[C@@H](Cc2ccccc2)C(=O)N[C@@H]([C@@H](C)CC)C(=O)N(C)[C@@H](CC)C(=O)N[C@@H]([C@@H](C)O)C(=O)N(C)CC1=O` [pd406] ([dL][NMeF]I[NMeAbu]T[Sar][NPentylGly]S(tBu)[NMeF][NMeL]D-Piperidide; lactam N-11), for which the Caco-2 was determined as 1.1e-06 cm/s.
Still for that read-out and setting: under `CCCN1CC(=O)N(C)[C@@H](Cc2ccccc2)C(=O)N[C@@H]([C@@H](C)CC)C(=O)N(C)[C@@H](CC(C)C)C(=O)N[C@@H]([C@@H](C)O)C(=O)N(CCC)CC(=O)N(C)[C@@H](Cc2ccccc2)C(=O)N(C)[C@@H](CC(C)C)C(=O)N[C@@H](COCC(C)(C)O)C(=O)N(C)[C@@H](C(C)C)C(=O)N[C@H](C(=O)N2CCCCC2)CC1=O` [pd431] ([NPrGly][NMeF]I[NMeL]T[NPrGly][NMeF][NMeL]S(CH2CMe2OH)[NMeV]D-Piperidide; lactam N-11) stands 1.1e-06 cm/s; under `CCCN1CC(=O)N(C)[C@@H](CC(C)C)C(=O)N[C@@H](CC(C)C)C(=O)N(C)[C@@H](Cc2ccccc2)C(=O)N(C)[C@@H](C)C(=O)N[C@H](C(=O)N2CCCCC2)CC(=O)N[C@H](CC(C)C)C(=O)N(C)[C@@H](Cc2ccccc2)C(=O)N[C@@H](COCC(=O)NC(C)(C)C)C(=O)N(C)[C@@H](CC(C)C)C(=O)N[C@@H]([C@@H](C)O)C1=O` [pd442] ([dL][NMeF]S(CH2CONHtBu)[NMeL]T[NPrGly][NMeL]L[NMeF][NMeA]D-Piperidide; lactam N-11), 1.1e-06 cm/s.
